Assay results reported in US20120083471A1, “Novel Compounds, Pharmaceutical Compositions Containing Same, Methods of Use for Same, and Methods for Preparing Same” (priority 2008, published 2012).

How the values were obtained:
lean mice = assay: Acute single-dose FSG67 treatment of lean mice (body weight, food intake); format: in vivo; settings: single 20 mg/kg ip
Source text: (§1) DIO and lean mouse models. All animal experimentation was done in accordance with guidelines on animal care and use as established by the Johns Hopkins University School of Medicine IACUC. DIO C57BL6J male mice were obtained from Jackson Laboratory (Bar Harbor, ME) and fed a synthetic diet comprised of 60% calories from fat, 20% from carbohydrate, and 20% from protein (5.2 kcal/g) post-weaning through the experimental procedures (D12492i, Research Diets, Inc., New Brunswick, N.J.). For lean animal studies, twelve-week old C57BL6J male mice (Jackson Laboratory, Bar Harbor, Me.) were fed rodent chow comprised of 13% calories from fat, 58% from carbohydrate, and 29% from protein (4.1 kcal/g) (Prolab RMH 2500, PMI Nutrition International Inc., Brentwood, Mo.). Mice were maintained in 12 hr light-dark cycle at 25° C. for 1 week for acclimatization prior to treatment. In all studies, FSG67 (FASgen, Inc., Baltimore, Md.) was dissolved in RPMI 1640 (Invitrogen, Carlsbad, Calif.).
For acute studies, 6 DIO or lean mice were treated with a single dose of FSG67 (20 mg/kg, i.p.) approximately 3 hrs past lights-on. Animal weights and food consumption were measured 18 h after treatment. Following euthanization, the hypothalmuses were harvested to measure orexigenic and anorexigenic neuropeptide gene expression. […] Body weight and food intake were measured daily. In one study, a cohort of mice was pair-fed with amounts consumed by the FSG67-treated animals and mice were monitored with indirect calorimetry (Oxymax Equal Flow System®, Columbus Instruments, Columbus, Ohio). Measurements of VO2 (ml/kg/hr) and VCO2 (ml/kg/hr) were performed and recorded every 15 min. The respiratory exchange ratio (RER) was calculated by Oxymax software, version 5.9, and is defined as ratio of VCO2 to VO2 33. […] Tissues were harvested immediately for RNA extraction; serum was collected and analyzed for glucose, cholesterol, and triglyceride measurements (Bioanalytics, Gaithersburg, Md.). […]

DIO mice [1] = assay: 5-day dose ranging study in DIO mice; format: in vivo, mouse; settings: 5 days
Description: To determine the dose of FSG67 suitable for chronic treatment, we performed a 5-day dose ranging study in DIO mice, four per group, with daily intraperitoneal doses of 1, 2, and 5 mg/kg (FIG. 17). The 5 mg/kg dose led to significant weight loss of 3.9% compared to vehicle controls (p=0.008, 2-way ANOVA). This dose was chosen for the subsequent chronic treatment experiments.

mouse mitochondrial GPAT = target: T1, mouse mitochondrial GPAT (Mus musculus, UniProt Q61586); settings: reference 12; read-out: reported IC50 for mouse mitochondrial GPAT activity; cited from earlier work
T1 sequence (Q61586 1-827): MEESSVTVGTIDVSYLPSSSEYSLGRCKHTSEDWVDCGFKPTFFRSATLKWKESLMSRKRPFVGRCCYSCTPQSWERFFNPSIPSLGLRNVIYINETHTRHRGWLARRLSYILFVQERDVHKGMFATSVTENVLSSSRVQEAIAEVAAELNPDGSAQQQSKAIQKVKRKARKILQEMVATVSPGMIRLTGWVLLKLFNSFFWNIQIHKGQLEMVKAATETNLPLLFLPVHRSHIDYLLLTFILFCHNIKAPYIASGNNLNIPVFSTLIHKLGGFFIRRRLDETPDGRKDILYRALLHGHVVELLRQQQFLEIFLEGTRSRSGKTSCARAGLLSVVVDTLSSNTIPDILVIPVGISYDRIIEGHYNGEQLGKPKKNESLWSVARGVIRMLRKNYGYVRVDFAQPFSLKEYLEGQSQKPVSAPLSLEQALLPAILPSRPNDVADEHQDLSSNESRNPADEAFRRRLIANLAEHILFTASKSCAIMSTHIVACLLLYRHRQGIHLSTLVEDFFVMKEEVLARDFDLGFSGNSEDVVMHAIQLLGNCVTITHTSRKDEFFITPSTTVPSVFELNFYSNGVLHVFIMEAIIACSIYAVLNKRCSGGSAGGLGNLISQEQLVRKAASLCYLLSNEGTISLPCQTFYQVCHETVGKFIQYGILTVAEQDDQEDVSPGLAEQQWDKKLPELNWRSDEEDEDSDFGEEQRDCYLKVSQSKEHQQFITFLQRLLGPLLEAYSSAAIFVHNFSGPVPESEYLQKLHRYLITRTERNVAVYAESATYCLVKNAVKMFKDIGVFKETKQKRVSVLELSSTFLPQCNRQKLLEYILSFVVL

DIO mice [2] = assay: Chronic 20 d FSG67 treatment of DIO mice, reversibility of weight loss; format: in vivo, mouse
Source text: as §1
For acute studies, 6 DIO or lean mice were treated with a single dose of FSG67 (20 mg/kg, i.p.) approximately 3 hrs past lights-on. Animal weights and food consumption were measured 18 h after treatment. Following euthanization, the hypothalmuses were harvested to measure orexigenic and anorexigenic neuropeptide gene expression. In the chronic studies, DIO mice, 4-10 animals per group, were treated daily with FSG67 (5 mg/kg, i.p.) or with RMPI vehicle for the days indicated. Body weight and food intake were measured daily. In one study, a cohort of mice was pair-fed with amounts consumed by the FSG67-treated animals and mice were monitored with indirect calorimetry (Oxymax Equal Flow System®, Columbus Instruments, Columbus, Ohio). Measurements of VO2 (ml/kg/hr) and VCO2 (ml/kg/hr) were performed and recorded every 15 min. The respiratory exchange ratio (RER) was calculated by Oxymax software, version 5.9, and is defined as ratio of VCO2 to VO2 33. After completion of the treatment course, animals were euthanized by CO2 inhalation 4 hrs following the final dose of FSG67. Tissues were harvested immediately for RNA extraction; serum was collected and analyzed for glucose, cholesterol, and triglyceride measurements (Bioanalytics, Gaithersburg, Md.). Fresh liver tissue was snap frozen in liquid N2, sectioned, and stained with hematoxylin and Oil Red O to visualize triglyceride droplets.
The first chronic treatment experiment was designed to test if weight loss induced by FSG67 was reversible. Four DIO mice per group were treated with FSG67 or vehicle for 20 days. For the entire 32 d trial, weight and food consumption were recorded daily until the FSG67 treated animals regained their original weight. During FSG67 treatment (days 0-20), the mice lost 10.3±0.6% of their body mass while controls gained 4.0±0.5% (p<0.0001, 2-way ANOVA) (FIG. 12a). Average food consumption was reduced during FSG67 treatment (2.6±0.1 g/d, days 1-20) compared to vehicle controls (3.1±0.1 g) (p=0.0008, 2-way ANOVA) (FIG. 12b). Following cessation of treatment, food consumption increased in the FSG67 treatment group to an average of 3.5±0.1 g/d (days 21-32) representing a significant increase in food intake compared to vehicle controls 3.2±0.1 g/d (p=0.006, 2-way ANOVA). The FSG67 treated animals achieved their average pre-treatment weight 11 days following termination of treatment (FIG. 12a).

CCCCCCCCCS(=O)(=O)Nc1ccccc1C(=O)O [Compound 15g, 2-(Nonylsulfonamido)benzoic acid]
food consumption (lean mice; lean mice): 1.4 ± 0.2 g | food consumption, % of vehicle control (lean mice; lean mice): 33% | overt toxicity (lean mice; lean or DIO mice): No overt toxicity | weight loss compared to vehicle controls (DIO mice [1]; 5 mg/kg ip daily): 3.9% | minimum dose that led to significant weight loss (DIO mice [1]; daily ip, doses 1, 2, 5 mg/kg): 5 mg/kg | IC50 (mouse mitochondrial GPAT): 24.7 µM | time to pre-treatment weight following termination of treatment (DIO mice [2]): 11 days | body mass lost during treatment (DIO mice [2]; 5 mg/kg ip daily, 20 d): 10.3±0.6% | food consumption during treatment (DIO mice [2]; 5 mg/kg ip daily, days 1-20): 2.6 ± 0.1 g/day | food consumption following cessation of treatment (DIO mice [2]; days 21-32): 3.5 ± 0.1 g/day | day of return to original weight (DIO mice [2]; treatment terminated at day 20): 32 days
